Measured values: US10329336B2, “Antimicrobial kinocidin compositions and methods of use” (LA Biomedical Research Institute at Harbor-UCLA Medical …, priority 2006, dated 2019)
“Also recorded” adds a separate entry of the source.

Experiments:
[1] = test system: Staphylococcus aureus (ATCC 27217), Bacillus subtilis (ATCC 6633), Escherichia coli (strain ML-35); test: Solid-phase radial diffusion assay (signature model validation), bacteria panel; type: cell-based; conditions: pH 5.5 or pH 7.5, after 24h
Description: (§1) Standard radial diffusion assays were conducted using 10 μg of specified peptide: defensin HNP-1 (HNP); brazzein (BRZ); charybdotoxin (CTX); or metallothionein II (MTL). Recombinant brazzein reflecting the published 3-dimensional structure (1BRZ) as determined by nuclear magnetic resonance spectroscopy was kindly provided by Drs. J. L. Markley and F. M. Assadi-Porter, the University of Wisconsin 25. Charybdotoxin, metallothionein II, and defensin HNP-1 were obtained from commercial sources. Antimicrobial activity was assessed using a well-established solid-phase diffusion method as described by Tang et al., Infect. Immun. 70: 6524-6533 (2002). Assays included well characterized organisms: Staphylococcus aureus (ATCC 27217, Gram-positive coccus); Bacillus subtilis (ATCC 6633, Gram-positive bacillus); Escherichia coli (strain ML-35, Gram-negative bacillus); and Candida albicans (ATCC 36082, fungus). In brief, organisms were cultured to logarithmic phase and inoculated (10^6 colony forming units/ml) into buffered molecular-biology grade agarose at the indicated pH. Peptides resuspended in sterile deionized water were introduced into wells formed in the underlay, and incubated for 3h at 37° C. Nutrient-containing overlay medium was then applied, and assays incubated at 37° C. or 30° C. for bacteria or fungi, respectively. After 24h, zones of complete or partial inhibition were measured. All assays were repeated independently a minimum of two times at pH 5.5 (panels A-D) or pH 7.5 (panels E-H) to assess the influences of pH on peptide antimicrobial activities versus microorganisms. Histograms express mean (±standard deviation) zones of complete (blue) or incomplete (yellow) inhibition of growth. […] Note differences in scale.
(§2) These peptides were tested for antimicrobial activity against a panel of Gram-positive (Staphylococcus aureus. Bacillus subtilis) and Gram-negative (Escherichia coli) bacteria, and the fungus Candida albicans, using a well-established and sensitive in vitro assay [Antimicrobial activity was assessed using a well-established solid-phase diffusion method. Assays included well-characterized organisms: Staphylococcus aureus (ATCC 27217, Gram-positive); Bacillus subtilis (ATCC 6633, Gram-positive); Escherichia coli (strain ML-35, Gram-negative); and Candida albicans (ATCC 36082, fungus). In brief, organisms were cultured to logarithmic phase and inoculated at a density of 10^6 colony forming units/ml in buffered molecular grade agarose at the indicated pH. […] of peptide resuspended in sterile deionized water were introduced into wells formed in the underlay, and incubated for 3h at 37° C. […] After 24h, zones of complete or partial inhibition were measured. […]

[2] = test system: Candida albicans (ATCC 36082); test: Solid-phase radial diffusion assay (signature model validation), fungus; type: cell-based; conditions: C. albicans, pH 5.5 or pH 7.5, after 24h
Description: as §1, §2

[3] = test system: Candida albicans (ATCC 36082); test: Solid-phase antimicrobial assay of kinocidins; type: cell-based; conditions: C. albicans, 0.5 nmol/well
Description: (§3) Peptides (0.5 nmol) were introduced into wells in agarose plates buffered with MES (2.0 mM, pH 5.5) or PIPES (10.0 mM, pH 7.5). Antimicrobial activity was assessed as the zone of complete (blue) or partial (red) inhibition around the well. Abbreviations are: Native IL-8 (IL-8); IL-8α, (α); IL-8γ, (γ); IL-8α+IL-8γ (α+γ); RANTES, (RAN); GRO-α, (GRO); MCP-1, (MCP); lymphotactin, (LYM); platelet factor-4, (PF-4); and HNP-1, (HNP). Histograms are means±SEM (minimum n=2).
(§4) Briefly, the antimicrobial assays were performed against a panel of prototype human pathogens as previously detailed (Yoshimura, T., Matsushima, K., Tanaka, S., Robinson, E. A., Appella, E., Oppenheim, J. J. & Leonard, E. J. (1987) Proc Natl Acad Sci USA 84, 9233-7): Staphylococcus aureus (ATCC 27217; Gram-positive bacterium); Salmonella typhimurium (5996s; Gram-negative bacterium); and the fungus Candida albicans (ATCC 36082). Defensin HNP-1 was included in each assay as an internal control, and all assays were conducted a minimum of two independent times. Results of independent assays were analyzed using Wilcoxon Rank Sum analysis with Bonferroni correction for multiple comparisons.
(§5) For the Solid-Phase Assay, mid-logarithmic phase organisms were prepared, introduced into buffered agarose (PIPES [10 mM, pH 7.5] or MES [2.0 mM, pH 5.5]) to achieve final inocula of 10^6 CFU/ml, and poured into plates. Peptides (0.5 nmol/well [50 nmol/ml]) were added to wells in the seeded matrix, and incubated for 3h at 37° C. Nutrient overlay medium was applied, and assays incubated at 37° C. or 30° C. for bacteria or fungi, respectively. After 24h, zones of inhibition were measured, and results recorded as zones of complete or partial inhibition.

[4] = test system: Salmonella typhimurium (5996s); test: Solid-phase antimicrobial assay of kinocidins; type: cell-based; conditions: S. typhimurium (Gram-negative); pH 5.5 or 7.5, not separated; 0.5 nmol/well
Description: as §3, §4, §5

[5] = test system: Staphylococcus aureus (ATCC 27217); test: Solid-phase antimicrobial assay of kinocidins; type: cell-based; conditions: 0.5 nmol/well
Description: as §3, §4, §5

[6] = test system: C. albicans ATCC 36082; test: Solution-phase microbicidal assay; type: cell-based, Candida albicans; conditions: C. albicans; for microbicidal (fungicidal) activity: solution-phase, pH 5.5 and 7.5, 1 hour
Description: (§6) One million CFU of the indicated microorganism per milliliter were incubated with peptide (0.00125-20.0 nmol/ml) in either MES (2.0 mM, pH 5.5) or PIPES (10.0 mM, pH 7.5) for one hour at 37° C. Surviving CFU were enumerated and are described as change in the initial log 10 CFU. ∘, S. aureus ATCC 27217; ●, S. typhimurium strain 5990s; □, C. albicans ATCC 36082. Data are means±SD (minimum n=2).
as §4
(§7) To characterize IL-8's antimicrobial activity in more detail, a quantitative solution-phase assay was carried out at pH 5.5 and 7.5. Organisms were prepared and adjusted to 10^6 CFU/ml in PIPES or MES buffer as above but lacking agarose, and dispensed (5×10^4 CFU per 50 μl aliquot). Peptide (concentration range, 20-0.00125 nmol/ml) was introduced into the assay medium, and incubated for 1 hour at 37° C. After incubation, media were serially diluted and plated in triplicate for enumeration. […] IL-8 was also fungicidal for C. albicans at pH 7.5, with a 2-log reduction in surviving CFU over 1 hour at a concentration of 2.5 nmol/ml.

[7] = test system: S. typhimurium; test: Solution-phase microbicidal assay; type: cell-based, Salmonella typhimurium; conditions: for microbicidal activity: solution-phase, pH 5.5 and 7.5, 1 hour
Description: as §6, §4, §7

[8] = test system: S. aureus ATCC 27217; test: Solution-phase microbicidal assay; type: cell-based, Staphylococcus aureus; conditions: for microbicidal activity: solution-phase, pH 5.5 and 7.5, 1 hour
Description: as §6, §4, §7

[9] = S. aureus (Gram-positive), pH 5.5 or 7.5, not separated

**Q.** For “metallothionein II: comparator predicted to lack antimicrobial activity, from commercial sources”, which “antimicrobial activity (zones of complete or partial inhibition)” value [1] is on record?
**A.** The value was “failed to exert antimicrobial activity”.

**Q.** What about the “antimicrobial activity (zones of complete or partial inhibition)” value ([1]; listed as Metallothionein II) of the same molecule?
**A.** The value was “lacked antimicrobial activity”.

**Q.** And the “antimicrobial activity (zones of complete or partial inhibition)” value [2]?
**A.** The value was “failed to exert antimicrobial activity”.

**Q.** And the “antimicrobial activity (zones of complete or partial inhibition)” value ([2]; listed as Metallothionein II)?
**A.** The value was “lacked antimicrobial activity”.

**Q.** Which results are given for “IL-8: recombinant human chemokine interleukin-8, obtained commercially”?
**A.** antifungal activity (zone of inhibition) ([3]; pH 5.5): greater than any other kinocidin; antifungal activity (zone of inhibition) ([3]; pH 5.5 or 7.5, not separated): striking antifungal activity; antifungal activity (zone of inhibition) ([3]; pH 7.5): the only kinocidin with anti-candidal activity; antimicrobial activity (zone of inhibition) [4]: equivalent to lymphotactin, but more efficacious than any other test kinocidin; antimicrobial activity (zone of inhibition) ([5]; S. aureus, pH 5.5): modest activity; reduction in surviving CFU ([6]; pH 7.5, 2.5 nmol/ml, over 1 hour): 2 log; microbicidal (fungicidal) activity [6]: highly fungicidal; activity in solution phase ([7]; pH 7.5): lacks activity; microbicidal activity [7]: did not exert microbicidal activity; activity in solution phase ([8]; pH 7.5): lacks activity; microbicidal activity [8]: did not exert microbicidal activity

**Q.** “RANTES: recombinant human chemokine, obtained commercially” was tested. Which “antimicrobial activity (zone of inhibition)” value ([5]; S. aureus, pH 7.5) did it give?
**A.** The value was “more efficacious”.

**Q.** With charybdotoxin as the molecule, how does the “antimicrobial activity (zones of complete or partial inhibition)” value [1] read?
**A.** Its value is “exerted direct antimicrobial activity; also recorded: direct antimicrobial activities”.

**Q.** And the “antimicrobial activity (zones of complete or partial inhibition)” value [2]?
**A.** Its value is “exerted direct antimicrobial activity; also recorded: direct antimicrobial activities”.

**Q.** For “ANTEIIVKLSDGRELCLDP [IL-8γ, synthetic γ-core domain of IL-8]”, which “antifungal activity (zone of inhibition)” value ([3]; pH 5.5 or 7.5, not separated) is on record?
**A.** The value was “no detectable antimicrobial efficacy”.

**Q.** What about the “antimicrobial activity (zone of inhibition)” value [4] of the same molecule?
**A.** The value was “no detectable antimicrobial efficacy”.

**Q.** And the “antimicrobial activity (zone of inhibition)” value [5, 9]?
**A.** Its value is “no detectable antimicrobial efficacy”.

**Q.** And the “microbicidal (fungicidal) activity” value [6]?
**A.** The value was “no measurable activity”.

**Q.** What about the microbicidal activity [7] of the same molecule?
**A.** Its microbicidal activity is “no measurable activity”.

**Q.** And the microbicidal activity [8]?
**A.** Its microbicidal activity is “no measurable activity”.

**Q.** With “MCP-1: recombinant human chemokine, obtained commercially” as the molecule, how does the “antifungal activity (zone of inhibition)” value ([3]; pH 5.5 or 7.5, not separated) read?
**A.** The value was “no measurable antifungal activity”.

**Q.** What about the “antimicrobial activity (zone of inhibition)” value [4] of the same molecule?
**A.** The value was “significant activity”.

**Q.** And the “antimicrobial activity (zone of inhibition)” value [5, 9]?
**A.** The value was “significant activity”.

**Q.** How did the “antimicrobial activity (zones of complete or partial inhibition)” value [1] turn out when “brazzein: recombinant sweetener protein from Pentadiplandra (1BRZ) (QDKCKKVYENYPVSKCQLANQCNYDCKLDKHARSGECFYDEKRNLQCICDYCEY; UniProt P56552 1-54, looked up)” was run?
**A.** Its value is “exerted direct antimicrobial activity; also recorded: direct antimicrobial activities”.

**Q.** What about the “antimicrobial activity (zones of complete or partial inhibition)” value [2] of the same molecule?
**A.** Its value is “exerted direct antimicrobial activity; also recorded: direct antimicrobial activities”.

B1: Lymphotactin: recombinant human chemokine, obtained commercially (protein, UniProt P47992 22-114, looked up)
Lymphotactin: VGSEVSDKRTCVSLTTQRLPVSRIKTYTITEGSLRAVIFITKRGLKVCADPQATWVRDVVRSMDRKSNTRNNMIQTKPTGTQQSTNTAVTLTG
**Q.** B1 was tested. Which “antimicrobial activity (zone of inhibition)” value ([5]; S. aureus, pH 7.5) did it give?
**A.** The value was “more efficacious”.
